Consider 2 molecules from patent publication US20260174791A1, “MACROPHAGE MIGRATION INHIBITORY FACTOR (MIF) TARGETING FOR THE TREATMENT OF NON-SMALL CELL LUNG CANCER” (Board of Regents, The University of Texas System, priority 2022, published 2026).

Assay [1] deals with lung cancer patients, EGFR or KRAS mutation. As to conditions: patients who harbor an EGFR mutation; cited from earlier work.
The subject of assay [2] is NSCLC patients with STK11/LKB1 and/or KEAP1 mutations. The assay can be described thus: Clinical data, pembrolizumab plus first-line chemotherapy in NSCLC patients. Format: in vivo, human. The text has this:
FIG. 1A is a graph illustrating response rates to pemetrexed/platin/pembrolizumab (PCP) chemo-immunotherapy in STK11 and KEAP1-defined wild type (wt) and mutant subgroups. FIG. 1B is a graph illustrating response rates to pemetrexed/platin/pembrolizumab (PCP) chemo-immunotherapy in STK11 and KEAP1-defined wild type (wt) and mutant subgroups. […] FIG. 1D a Kaplan-Mayer graph illustrating overall survival of STK11/LKB1 and KEAP1 mutant or wt defined patients.

For `C#Cc1cccc(Nc2ncnc3cc(OCCOC)c(OCCOC)cc23)c1` [erlotinib], the response rate in assay [1] is recorded as 60%. As for pembrolizumab, the “refractory disease on pembrolizumab plus standard care first-line chemotherapies” value in assay [2] (NSCLC patients (n=139), STK11/LKB1 and/or KEAP1 mutant vs wild type) is on record as “higher percentage of patients with refractory diseases”. Also, in assay [2] (patients with STK11 and/or KEAP1 genomic alterations, vs chemotherapy alone), the “clinical benefit (survival) of adding pembrolizumab to chemotherapy” value is “did not result in clinical benefit”.
